The nature of series [1]: Stability in mammalian liver microsomes (Example D). To be noted: human liver microsomes 0.5 mg/mL, 0.5 μM compound, 37° C.; scaled from in vitro half-life (Obach method); linker comparators. It is filed as in vitro ADME. How it is done: Compounds of Formula I were assessed for their stability in mammalian liver microsomes. A compound of Formula I (0.5 μM) was incubated with pooled mixed gender human liver microsomes (HLM) (0.5 mg/mL total protein) at 37° C. in the presence of an NADPH-generating system containing 50 mM, pH 7.4 potassium phosphate buffer, 3 mM magnesium chloride, 1 mM EDTA, 1 mM NADP, 5 mM glusose-6-phosphate, and 1 Unit/mL glucose-6-phosphate dehydrogenase. All concentrations were relative to the final incubation volume of 125 μL. Incubations were conducted at 37° C. for 0, 5, 10, 20, 40 and 60 minutes in a water bath and terminated by rapid mixing with 150 μL of ice-cold acetonitrile containing internal standard, and precipitated proteins were removed by centrifugation prior to LC-MS/MS analysis. Aliquots of the resulting supernatant fractions were analyzed by LC-MS/MS monitoring for depletion of parent compound. The resultant peak area ratio versus time data was fitted to a non-linear regression using XLfit Scientific Curve Fitting Software (IDBS Ltd., Surrey, UK) and half-life was calculated from the slope. Pharmacokinetic parameters were predicted using the method described by Obach et al (J. Pharmcol. Exp. Ther. 1997; 283:46.58). Briefly, values for intrinsic clearance were calculated from the in vitro half-life data and were then scaled to represent the clearance expected in the entire animal (human). Additional values calculated included predicted extraction ratio and predicted maximum bioavailability. For example, the O-linker has better metabolic stability relative to the methyl linker or the —CH2O-linker, as shown by the following comparators
In general terms: Liver microsomes are vesicles of endoplasmic reticulum, rich in cytochrome P450 enzymes.

Another series deals with recombinant human GPR52 (Homo sapiens, UniProt Q9Y2T5). In words: HTRF cAMP assay, GPR52 activity (Example A). It is filed as cell-based. The gist of the method: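 Flp-In CHO cells stably expressing human GPR52 (20,000/well) incubated 30 min at room temperature with compound, cAMP then quantified by competitive HTRF. EC50 from nonlinear fits of cAMP-transformed data normalized to positive control; Emax is top plateau at 10 or 31.6 μM, given as % of a reference agonist's Emax.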
On the technique in general: TR-FRET usually uses a lanthanide donor and a delayed reading to cut background.

Setting [2] is: average EC50 (n=1 to 15), Flp-In-CHO cells stably expressing recombinant human GPR52, cAMP HTRF, read-out: EC50 (N=).
[3] abbreviates: maximum cAMP at 10 μM or 31.6 μM test compound, as percentage of Emax of control compound 4-(3-(3-fluoro-5-(trifluoromethyl)benzyl)-5-methyl-4,5-dihydro-1H-1,2,4-triazol-1-yl)-2-methylbenzamide.

Read-outs that look alike come from different tables or passages of the source.

Chain of recombinant human GPR52 (Q9Y2T5 whole entry): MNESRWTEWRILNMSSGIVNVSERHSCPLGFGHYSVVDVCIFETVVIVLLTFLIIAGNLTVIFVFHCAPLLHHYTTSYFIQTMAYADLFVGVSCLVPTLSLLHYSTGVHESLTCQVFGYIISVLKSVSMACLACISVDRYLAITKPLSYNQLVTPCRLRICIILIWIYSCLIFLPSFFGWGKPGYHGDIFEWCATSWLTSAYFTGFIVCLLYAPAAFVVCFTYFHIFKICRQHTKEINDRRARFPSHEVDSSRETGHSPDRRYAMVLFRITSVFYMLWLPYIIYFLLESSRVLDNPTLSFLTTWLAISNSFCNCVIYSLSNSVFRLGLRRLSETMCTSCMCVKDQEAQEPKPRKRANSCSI

Regarding `Cc1cc(-c2cc(COc3ccc4c(cnn4C)c3)ccn2)ccc1C(N)=O`, the “Metabolic stability - predicted systemic clearance” value in series [1] was “Metabolic stability - predicted systemic clearance (example D, above) is 12.3 ml/min/kg”.
Take `Cc1cc(-c2cc(Oc3ccc4cnn(C)c4c3)ccn2)ccc1C(N)=O` [drawing 281]: in series [1], the “Metabolic stability - predicted systemic clearance” value is recorded as “Metabolic stability - predicted systemic clearance (example D, above) is 3.6 ml/min/kg”.
Take `Cc1cc(-c2cc(Oc3ccc4c(cnn4C)c3)ccn2)ccc1C(N)=O` [drawing 283]: the “Metabolic stability - predicted systemic clearance” value in series [1] is given as “Metabolic stability - predicted systemic clearance (example D, above) is 8.0 ml/min/kg”.
For `Cc1cc(-c2cc(Cc3ccc4cnn(C)c4c3)ccn2)ccc1C(N)=O`, the “Metabolic stability - predicted systemic clearance” value in series [1] is “Metabolic stability - predicted systemic clearance (example D, above) is 11.3 ml/min/kg”.
In the case of `Cc1cc(-c2cc(Oc3cc(F)c4ncc(F)cc4c3)ccn2)ccc1C(N)=O` [Example 119, 4-(4-((3,8-difluoroquinolin-6-yl)oxy)pyridin-2-yl)-2-methylbenzamide], on recombinant human GPR52 (setting [2]), the EC50 lay in the range of 101 to 1000 nM. The maximal response (Emax) at recombinant human GPR52 (setting [3]) came out at 120%.
On the same counts, the results for `Cc1cc(-c2cc(Oc3ccc4c(F)nn(C)c4c3)ccn2)ccc1C(N)=O` [Example 128, 4-(4-((3-fluoro-1-methyl-1H-indazol-6-yl)oxy)pyridin-2-yl)-2-methylbenzamide] are 25 to 100 nM and 118%.
For the molecule `Cc1cc(-c2cc(Oc3cnc4c(c3)c(F)nn4C)ccn2)ccc1C(N)=O` [Example 126, 4-(4-((3-fluoro-1-methyl-1H-pyrazolo[3,4-b]pyridin-5-yl)oxy)pyridin-2-yl)-2-methylbenzamide], the EC50 on recombinant human GPR52 (setting [2]) lay in the range of 101 to 1000 nM. In addition, the Emax at recombinant human GPR52 (setting [3]) came out at 103%.
For the molecule `Cc1cc(-c2cc(Oc3ccc4c(c3)OC(F)(F)O4)ccn2)ccc1C(N)=O` [Example 89, 4-(4-((2,2-difluorobenzo[d][1,3]dioxol-5-yl)oxy)pyridin-2-yl)-2-methylbenzamide], the EC50 at recombinant human GPR52 (setting [2]) was in the range of 101 to 1000 nM. For the same molecule, the Emax on recombinant human GPR52 (setting [3]) was 95%.
Turning to `CCc1cc(-c2cc(Oc3ccc4c(C#N)nn(C)c4c3)ccn2)ccc1C(N)=O` [Example 48, 4-(4-((3-cyano-1-methyl-1H-indazol-6-yl)oxy)pyridin-2-yl)-2-ethylbenzamide], at recombinant human GPR52 (setting [2]), the EC50 was 101 to 1000 nM. Moreover, at recombinant human GPR52 (setting [3]), the maximal effect (Emax) came to 118%.
For the molecule `Cc1cc(-c2cc(Oc3ccc4c(cnn4C)c3)ccn2)ccc1C(N)=O` [Example 5, 2-methyl-4-(4-((1-methyl-1H-indazol-5-yl)oxy)pyridin-2-yl)benzamide], the EC50 at recombinant human GPR52 (setting [2]) was in the range of 101 to 1000 nM. Further, the Emax on recombinant human GPR52 (setting [3]) is 76%.
The like results for `Cc1cc(-c2cc(Oc3ccc4c(c3)CCO4)ccn2)ccc1C(N)=O` [Example 67, 4-(4-((2,3-dihydrobenzofuran-5-yl)oxy)pyridin-2-yl)-2-methylbenzamide] were, in that order, 101 to 1000 nM and 129%.
As to `CCc1cc(-c2cc(Oc3cc(F)c4cnn(C)c4c3)cc(N)n2)ccc1C(N)=O` [Example 20, 4-(6-amino-4-((4-fluoro-1-methyl-1H-indazol-6-yl)oxy)pyridin-2-yl)-2-ethylbenzamide], on recombinant human GPR52 (setting [2]), the concentration for a half-maximal effect (EC50) lay within 101 to 1000 nM. Moreover, the Emax on recombinant human GPR52 (setting [3]) stood at 111%.
On the same counts, the results for `CCc1cc(-c2cc(Oc3cnc4c(c3)c(C(F)(F)F)nn4C)cc3nccn23)ccc1C(N)=O` [Example 77, 2-ethyl-4-(7-((1-methyl-3-(trifluoromethyl)-1H-pyrazolo[3,4-b]pyridin-5-yl)oxy)imidazo[1,2-a]pyridin-5-yl)benzamide] are 101 to 1000 nM and 75%.
Consider `CCn1ncc2ccc(Oc3ccnc(-c4ccc(C(N)=O)c(C)c4)c3)cc21` [Example 44, 4-(4-((1-ethyl-1H-indazol-6-yl)oxy)pyridin-2-yl)-2-methylbenzamide], for which the half-maximal effective concentration (EC50) at recombinant human GPR52 (setting [2]) fell in the range of 101 to 1000 nM. The Emax on recombinant human GPR52 (setting [3]) is 91%.
For `Cc1cc(-c2cc(Oc3cc(Cl)c4ncccc4c3)ccn2)ccc1C(N)=O` [Example 100, 4-(4-((8-chloroquinolin-6-yl)oxy)pyridin-2-yl)-2-methylbenzamide], at recombinant human GPR52 (setting [2]), the EC50 is 101 to 1000 nM. For the same molecule, the Emax on recombinant human GPR52 (setting [3]) was 112%.
Take `Cc1cc(-c2cc(Oc3ccc4c(C)nn(C)c4c3)ccn2)ccc1C(N)=O` [Example 4, 4-(4-((1,3-dimethyl-1H-indazol-6-yl)oxy)pyridin-2-yl)-2-methylbenzamide]: the EC50 on recombinant human GPR52 (Flp-In-CHO cells expressing human GPR52, read-out: average EC50) is 83 nM; on recombinant human GPR52 (setting [2]), 25 to 100 nM. Further, the “Emax (%)” value at recombinant human GPR52 (setting [3]) is given as 103%. Also, at recombinant human GPR52 (percentage of Emax of control compound), the maximal response (Emax) worked out at 106%.
For the molecule `Cc1cc(-c2cc(Oc3cnc4c(F)cccc4c3)ccn2)ccc1C(N)=O` [Example 103, 4-(4-((8-fluoroquinolin-3-yl)oxy)pyridin-2-yl)-2-methylbenzamide], the EC50 at recombinant human GPR52 (setting [2]) was 101 to 1000 nM. Further, the Emax at recombinant human GPR52 (setting [3]) came to 60%.
On to `CCc1cc(-c2cc(Oc3ccc4cnn(C)c4c3)ccn2)ccc1C(=O)NC` [Example 59, 2-ethyl-N-methyl-4-(4-((1-methyl-1H-indazol-6-yl)oxy)pyridin-2-yl)benzamide], for which the EC50 on recombinant human GPR52 (setting [2]) was in the range of 101 to 1000 nM. The Emax at recombinant human GPR52 (setting [3]) came to 95%.
Regarding `CCc1cc(-c2cc(Oc3ccc4ccncc4c3)ccn2)ccc1C(N)=O` [Example 73, 2-ethyl-4-(4-(162yridine162ine-7-yloxy)162yridine-2-yl)benzamide], the EC50 on recombinant human GPR52 (setting [2]) was 101 to 1000 nM. The Emax on recombinant human GPR52 (setting [3]) was determined as 66%.
With `Cc1cc(-c2cc(Oc3ccc4c(C)nn(C)c4c3)cc(N)n2)ccc1C(N)=O` [Example 19, 4-(6-amino-4-((1,3-dimethyl-1H-indazol-6-yl)oxy)pyridin-2-yl)-2-methylbenzamide], at recombinant human GPR52 (setting [2]), the EC50 lay in the range of 101 to 1000 nM. Besides, at recombinant human GPR52 (setting [3]), the Emax was 90%.

For orientation: EC50 means the midpoint of the concentration-response curve. The Emax is the size of the effect at its maximum, as opposed to the concentration needed.

Source of the values: patent US20260167615A1, “COMPOUNDS AND COMPOSITIONS AS GPR52 MODULATORS” (Neurocrine Biosciences, Inc., priority 2022, published 2026).
